Counter-ions that a name gives are not always drawn. Like-named read-outs stand apart in the source and are kept apart here.
How the values were obtained:
[1] = test system: cGMP levels in the rat brain; conditions: for incr vs contr (pmol cGMP/ml) (measured): increase versus control
[2] = test system: Apomorphine-induced agitation in rats; assay: Inhibition of apomorphine-induced agitation in rats (APO); conditions: for Dose at max effect / Max effect (lowest median cumulative agitation score) / LAD (lowest active dose): SC; for Max effect (lowest median cumulative agitation score): at the dose at max effect; for LAD (lowest active dose): lowest dose at which >=67% tested animals respond
[3] = test system: Apomorphine-induced agitation in rats; assay: Inhibition of apomorphine-induced agitation in rats in combination with MP-10; assay type: in vivo, rat; conditions: SC, MP-10 (0.63 mg/kg) + apomorphine (1.0 mg/kg) i.v.
Protocol: Inhibition of Apomorphine-induced Agitation in Rats in combination with MP-10 but the animals were simultaneously challenged with MP-10 (0.63 mg/kg) in addition to apomorphine (1.0 mg/kg) via one injection (2 ml/kg, i.v.), at a fixed time interval (standard 1 h) after s.c. or p.o. dosing of test compound or solvent. Twelve times, every 5 min, the intensity of agitation was scored 0 to 3.

[4] = test system: d-Amphetamine-induced hyperlocomotion in rats; assay: d-Amphetamine-induced hyperlocomotion in rats: MP-10 or B-1a alone (FIGS. 6-8); assay type: in vivo, rat
[5] = test system: d-Amphetamine-induced hyperlocomotion in rats; assay: Inhibition of d-amphetamine-induced hyperlocomotion in rats in combination with Compound A and Compound B (FIGS. 9, 10); assay type: in vivo, rat; conditions: B-1a 0.63-5.0 mg/kg s.c., -1 h
[6] = test system: Apomorphine-induced agitation in rats; assay: Inhibition of apomorphine-induced agitation in rats in combination with Compound A and Compound B (FIGS. 4, 5); assay type: in vivo, rat; conditions: -1 h
[7] = test system: d-Amphetamine-induced hyperlocomotion in rats; assay: d-Amphetamine-induced hyperlocomotion in rats: potentiation of the effect of MP-10; assay type: in vivo, rat; conditions: SC, d-amphetamine (1.25 mg/kg, s.c.) + MP-10 (2.5 mg/kg, s.c.)
[8] = molecular target: Rat recombinant PDE10A (rPDE10A2) (Rattus norvegicus (Rat), UniProt Q9QYJ6); assay: In vitro assay PDE10A (SPA, 3H-cAMP); assay type: biochemical
[9] = molecular target: Human recombinant PDE2A (hPDE2A) (Homo sapiens (Human), UniProt O00408); assay: In vitro assay PDE2A (SPA, 3H-cGMP); assay type: biochemical; conditions: -log IC50 expressed in mol/L
[10] = molecular target: T1, PDE2 (Rattus norvegicus (Rat), UniProt Q01062); assay: Potentiation of in vivo [3H]B-1a binding to PDE2 by MP-10 (ex vivo autoradiography)
[11] = test system: cAMP and cGMP levels in the rat brain (hippocampus and striatum); conditions: in vivo
[12] = test system: Apomorphine-induced agitation in rats; assay: Apomorphine-induced agitation: MP-10 (s.c.) dose-response with co-administered B-1a (FIGS. 1-3); assay type: in vivo, rat
[13] = molecular target: T1, PDE2; conditions: rat brain sections

Chain of Rat recombinant PDE10A (rPDE10A2) (Q9QYJ6 whole entry): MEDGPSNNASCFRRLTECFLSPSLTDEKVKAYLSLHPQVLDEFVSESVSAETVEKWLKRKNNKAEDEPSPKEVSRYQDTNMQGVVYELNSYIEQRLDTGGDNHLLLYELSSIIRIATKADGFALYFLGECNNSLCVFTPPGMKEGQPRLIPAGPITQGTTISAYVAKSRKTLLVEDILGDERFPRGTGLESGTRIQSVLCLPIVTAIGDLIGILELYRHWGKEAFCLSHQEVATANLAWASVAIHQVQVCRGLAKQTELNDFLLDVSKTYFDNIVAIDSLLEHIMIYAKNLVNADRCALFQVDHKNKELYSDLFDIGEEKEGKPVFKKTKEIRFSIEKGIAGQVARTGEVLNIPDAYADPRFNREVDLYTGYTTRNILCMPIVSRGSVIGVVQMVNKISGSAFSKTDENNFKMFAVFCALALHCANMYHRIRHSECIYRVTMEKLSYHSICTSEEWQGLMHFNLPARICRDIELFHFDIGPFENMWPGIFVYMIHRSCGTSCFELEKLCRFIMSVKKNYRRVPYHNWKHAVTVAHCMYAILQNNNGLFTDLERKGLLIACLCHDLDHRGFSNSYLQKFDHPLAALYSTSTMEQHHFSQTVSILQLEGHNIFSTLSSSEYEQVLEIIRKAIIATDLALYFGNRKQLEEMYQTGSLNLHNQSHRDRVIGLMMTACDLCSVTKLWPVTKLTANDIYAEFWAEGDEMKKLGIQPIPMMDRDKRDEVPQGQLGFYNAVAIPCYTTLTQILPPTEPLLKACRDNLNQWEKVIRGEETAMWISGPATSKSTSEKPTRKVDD
Chain of Human recombinant PDE2A (hPDE2A) (O00408 whole entry): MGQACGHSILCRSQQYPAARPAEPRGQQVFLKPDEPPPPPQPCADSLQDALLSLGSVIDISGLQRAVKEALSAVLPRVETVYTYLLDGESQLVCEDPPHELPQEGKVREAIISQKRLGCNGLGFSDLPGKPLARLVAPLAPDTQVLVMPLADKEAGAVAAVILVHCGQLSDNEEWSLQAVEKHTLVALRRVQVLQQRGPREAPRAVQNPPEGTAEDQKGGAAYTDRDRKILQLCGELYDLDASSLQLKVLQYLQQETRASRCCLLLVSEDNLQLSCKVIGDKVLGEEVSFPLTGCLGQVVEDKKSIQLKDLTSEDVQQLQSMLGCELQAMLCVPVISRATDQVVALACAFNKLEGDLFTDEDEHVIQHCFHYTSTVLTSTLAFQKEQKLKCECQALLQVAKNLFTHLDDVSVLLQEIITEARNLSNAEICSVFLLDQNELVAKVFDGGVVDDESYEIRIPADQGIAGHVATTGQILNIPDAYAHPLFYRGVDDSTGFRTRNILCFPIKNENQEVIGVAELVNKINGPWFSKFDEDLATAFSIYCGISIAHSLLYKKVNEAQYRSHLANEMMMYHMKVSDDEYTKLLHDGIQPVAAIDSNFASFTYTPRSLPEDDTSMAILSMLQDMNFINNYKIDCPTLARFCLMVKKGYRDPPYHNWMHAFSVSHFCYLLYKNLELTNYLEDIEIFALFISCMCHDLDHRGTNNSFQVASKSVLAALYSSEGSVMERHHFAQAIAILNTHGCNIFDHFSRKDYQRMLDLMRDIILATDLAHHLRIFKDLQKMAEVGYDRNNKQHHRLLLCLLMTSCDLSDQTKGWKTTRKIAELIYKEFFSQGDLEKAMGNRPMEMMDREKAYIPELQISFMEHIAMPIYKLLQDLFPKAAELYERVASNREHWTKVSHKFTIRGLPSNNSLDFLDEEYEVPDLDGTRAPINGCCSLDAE
T1 sequence (Q01062 whole entry): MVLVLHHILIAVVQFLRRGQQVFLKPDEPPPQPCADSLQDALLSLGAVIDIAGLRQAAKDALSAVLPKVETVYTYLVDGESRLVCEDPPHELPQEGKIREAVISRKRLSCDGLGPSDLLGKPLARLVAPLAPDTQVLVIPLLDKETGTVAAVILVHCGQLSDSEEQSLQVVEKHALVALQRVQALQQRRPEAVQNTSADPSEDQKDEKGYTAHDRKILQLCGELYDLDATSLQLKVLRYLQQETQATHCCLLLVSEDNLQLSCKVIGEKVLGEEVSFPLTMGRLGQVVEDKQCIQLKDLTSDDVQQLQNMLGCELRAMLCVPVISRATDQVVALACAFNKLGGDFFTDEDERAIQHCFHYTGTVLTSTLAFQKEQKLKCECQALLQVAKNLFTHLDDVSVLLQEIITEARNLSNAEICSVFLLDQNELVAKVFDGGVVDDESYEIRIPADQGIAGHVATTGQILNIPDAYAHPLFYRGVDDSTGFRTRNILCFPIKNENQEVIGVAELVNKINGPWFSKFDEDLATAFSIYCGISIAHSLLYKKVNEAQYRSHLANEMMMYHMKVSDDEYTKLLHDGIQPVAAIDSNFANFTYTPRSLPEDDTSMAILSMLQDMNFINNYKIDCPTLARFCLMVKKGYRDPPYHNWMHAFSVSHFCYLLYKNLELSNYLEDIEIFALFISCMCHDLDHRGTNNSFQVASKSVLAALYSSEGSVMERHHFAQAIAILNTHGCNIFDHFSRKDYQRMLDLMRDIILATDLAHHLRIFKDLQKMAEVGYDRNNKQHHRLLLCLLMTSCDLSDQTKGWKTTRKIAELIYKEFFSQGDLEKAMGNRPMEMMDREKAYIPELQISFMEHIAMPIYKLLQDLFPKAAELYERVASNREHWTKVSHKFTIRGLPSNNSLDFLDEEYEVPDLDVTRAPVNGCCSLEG

CCCCOc1cncc(-c2nnc3c(C)nc4ccc(CN5CCOCC5)cc4n23)c1 [Compound B-1a, 1-(5-Butoxypyridin-3-yl)-4-methyl-8-(morpholin-4-ylmethyl) [1,2,4]triazolo[4,3-a]quinoxaline hydrochloride] was tested, and the “incr vs contr (pmol cGMP/ml) (measured)” value ([1]; 2.5 mpk) was 5.4 pmol cGMP/ml, the “incr vs contr (pmol cGMP/ml) (measured)” value ([1]; 10 mpk) was 9.7 pmol cGMP/ml and the “Dose at max effect” value [2] was 40. For the same compound, the “Max effect (lowest median cumulative agitation score)” value [2] was 23, the “LAD (lowest active dose)” value [2] was greater than 40 and the “effect against apomorphine-induced agitation, administered alone” value ([2]; without MP-10, at the tested doses) was “ineffective against apomorphine”. For the same compound, the “Inh. of agitation < 10 Effect (cumulative agitation score)” value (from here on “Inh. of agitation < 10 Effect”) ([3]; Time 60, dose 0.63) was 18, the “Inh. of agitation < 10 Effect” value ([3]; Time 60, dose 1.25) was 10 and the “Inh. of agitation < 10 Effect” value ([3]; Time 60, dose 2.5) was 11. For the same compound, the “Inh. of agitation < 10 Effect” value ([3]; Time 60, dose 5) was 6, the “Inh. of agitation < 10 Effect” value ([3]; Time 60, dose 10) was 7 and the “Inh. of agitation < 10 Effect” value ([3]; Time 60, dose 40) was 1. For the same compound, the “effect against d-amphetamine-induced hyperlocomotion, alone” value ([4]; 40 mg/kg s.c., 1 h) was “ineffective per se”, the “effect on d-amphetamine-induced hyperlocomotion combined with the solvent of the PDE10-is” value [5] was “ineffective against the d-amphetamine-induced hyperlocomotion” and the “effect on d-amphetamine-induced hyperlocomotion combined with Compound A or Compound B” value ([5]; PDE10-i 2.5 mg/kg s.c.) was “potentiated the effect of both PDE10-is”. The “effect on apomorphine-induced agitation combined with Compound A or Compound B” value ([6]; B-1a 5.0 mg/kg s.c., PDE10-i 2.5 mg/kg s.c.) was “significantly potentiated the effect of both PDE10-is”, the “effect on apomorphine-induced agitation combined with the solvent of the PDE10-is” value ([6]; B-1a 0.63-5.0 mg/kg s.c.) was “did not affect apomorphine-induced agitation” and the “Distance Total <2500 cm Effect” value ([7]; Time -60, dose 0.31) was 3066 cm. For the same compound, the “Distance Total <2500 cm Effect” value ([7]; Time -60, dose 0.63) was 2525 cm, the “Distance Total <2500 cm Effect” value ([7]; Time -60, dose 1.25) was 1664 cm and the “Distance Total <2500 cm Effect” value ([7]; Time -60, dose 2.5) was 1659 cm. The “Distance Total <2500 cm Effect” value ([7]; Time -60, dose 5) was 1281 cm and the “Distance Total <2500 cm Effect” value ([7]; Time -60, dose 10) was 727.6 cm.
With Cc1nc2ccc(CN3CCOCC3)cc2n2c(-c3ccccc3Cl)nnc12 [Compound B-3, 1-(2-Chlorophenyl)-4-methyl-8-(morpholin-4-ylmethyl)[1,2,4]triazolo[4,3-a]-quinoxaline] the “PIC50 PDE10” value ([8]; -log IC50 expressed in mol/L) was 7.47, the “Dose at max effect” value [2] was 5 and the “Max effect (lowest median cumulative agitation score)” value [2] was 14. For the same compound, the “LAD (lowest active dose)” value [2] was 5 and the “pIC50 PDE2” value [9] was 8.64.
COC(=O)[C@@H](N)CCCNC(=N)N[N+](=O)[O-] [L-NAME] was tested, and the “effect of pre-treatment on potentiation of [3H]B-1a binding by MP-10” value ([10]; pre-treatment) was “prevented the potentiation”.
In the case of CCCCOc1cncc(-c2nnc3c(C)nc4ccc(CN(C)C)cc4n23)c1 [Compound B-27], the “PIC50 PDE10” value [8] is reported as 5.03, the “Inh. of agitation < 10 Effect” value ([3]; Time 60, dose 10) is reported as 14 and the “Hippocampus cAMP (% of Control)” value [11] is reported as 122 ± 10 % of Control. For the same compound, the “Hippocampus cGMP (% of Control)” value [11] was 104 ± 32 % of Control, the “Striatum cAMP (% of Control)” value [11] was 89 ± 6 % of Control and the “Striatum cGMP (% of Control)” value [11] was 128 ± 26 % of Control. For the same compound, the “Distance Total <2500 cm Effect” value ([7]; Time -60, dose 2.5) was 4145 cm and the “Distance Total <2500 cm Effect” value ([7]; Time -60, dose 10) was 2500 cm.
Cn1cc(-c2ccncc2)c(-c2ccc(OCc3ccc4ccccc4n3)cc2)n1 [MP-10, 2-{[4-(1-methyl-4-pyridin-4-yl-1H-pyrazol-3-yl)phenoxy]methyl}quinoline] was tested, and the “mean nmol cGMP/ml” value ([1]; 2.5 mpk) was 8.7 nmol cGMP/ml, the fold increase ([1]; cGMP vs vehicle, 2.5 mpk) was 1.4 and the “incr vs contr (pmol cGMP/ml) (measured)” value ([1]; 2.5 mpk) was 2.4 pmol cGMP/ml. For the same compound, the ED50 ([4]; Rattus norvegicus, sc, read-out: ED50 for reducing d-amphetamine-induced hyperlocomotion to a distance <1000 cm, MP-10 (-1 h, s.c.) alone, historical data) was greater than 40 mg/kg, the “effect on d-amphetamine-induced hyperlocomotion, alone” value ([4]; up to 40 mg/kg s.c.) was “almost never achieves values <2500 cm” and the “in vivo [3H]B-1a binding expressed as % of binding in vehicle-treated rats, AVG” value (“in vivo [3H]B-1a binding expressed as %” below) ([10]; dose MP-10 0.63 mpk) was 80%. The “in vivo [3H]B-1a binding expressed as %” value ([10]; dose MP-10 2.5 mpk) was 302%, the “in vivo [3H]B-1a binding expressed as %” value ([10]; dose MP-10 10 mpk) was 501% and the “in vivo [3H]B-1a binding expressed as %” value ([10]; dose MP-10 40 mpk) was 739%. For the same compound, the “effect on apomorphine-induced agitation (median score)” value ([12]; MP-10 -1 h, s.c., with B-1a or solvent) was “dose-dependently inhibited agitation” and the “median agitation scores <10” value ([12]; MP-10 up to 10 mg/kg, co-administered B-1a <=0.63 mg/kg) was “not obtained”.
In the case of O=P1(O)OCC2O[C@@H](n3cnc4ccccc43)[C@H](O)C2O1 (stereo partly shown) [cBIMP], the “effect on specific binding of [3H]B-1a” value [13] is reported as “increase the specific binding”.
For CCCCOc1ccc(Cl)c(-c2nnc3c(C)nc4ccc(CN(C)C)cc4n23)c1 [Compound B-11], the “PIC50 PDE10” value [8] was 5.67, the “Inh. of agitation < 10 Effect” value ([3]; Time 60, dose 2.5) was 17 and the “Inh. of agitation < 10 Effect” value ([3]; Time 60, dose 10) was 7. For the same compound, the “Hippocampus cAMP (% of Control)” value [11] was 117 ± 20 % of Control, the “Hippocampus cGMP (% of Control)” value [11] was 150 ± 42 % of Control and the “Striatum cAMP (% of Control)” value [11] was 88 ± 12 % of Control. The “Striatum cGMP (% of Control)” value [11] was 121 ± 20 % of Control, the “Distance Total <2500 cm Effect” value ([7]; Time -60, dose 2.5) was 3494 cm and the “Distance Total <2500 cm Effect” value ([7]; Time -60, dose 10) was 1960 cm.
